Experimental data: US7964584B2, “Method of treating or preventing osteoporosis comprising administering to a patient in need thereof an effective amount of pharmaceutical composition comprising benzamidine derivatives or their salts, and alendronic acid or its salt” (Dong Wha Pharmaceutical Co., Ltd., priority 2008, dated 2011)

Tested on: osteoclast differentiation (co-culture of bone marrow cells and osteoblasts)
Test: Osteoclast differentiation via co-culture of bone marrow cells and osteoblasts, count of TRAP(+) MNCs
Type: cell-based, mice
Details: individual treatment, 7 days culture; for relative number of TRAP(+) MNCs (mature osteoclasts with 6 or more nuclei), control group = 100%: n=4
Experimental: The osteoclast differentiation was induced by co-culture system between bone marrow cells and […] inhibitory effect of the drug on osteoclast differentiation was evaluated by treatment of single or combination formulation. […] Cells were removed from the bone marrow cells, followed by centrifugation. After the bone marrow cells were suspended in α-MEM medium supplemented with 10% FBS, and the numbers of the eukaryotic cells in the harvested bone marrow cells were counted and then immediately used for a co-culture system. The mouse calvaria were aseptically isolated from 1 2 day-old neonatal ICR mice, and the […], primary osteoblasts were isolated by sequential treatment with an enzyme solution of 0.2% collagenase. The isolated […] centrifuged, resuspended with α-MEM containing 10% FBS and cultured until confluent. Then, these cells were diluted to a desired cell number, and used for the experiment. The bone marrow cells (1×10^5 cells/well) and osteoblasts (3,000 cells/well) prepared in the above were plated in a 96-well plate using α-MEM medium supplemented with 10% FBS. At this time, differentiation factors, 1α,25-dihydroxyvitamin D3 (10^-8 M, hereinbelow, referred to as vitamin D3) and dexamethasone (10^-8 M), were co-added to the osteoclastic medium. The medium was replaced with fresh media containing the differentiation factors every 2 to 3 days. After 7 days, when multinucleated osteoclasts were observed, the medium was removed from the wells, and then the cells were fixed with PBS containing 10% formalin. An index of osteoclast formation was determined by counting number of Tartrate-Resistant Acid Phosphatase-positive multinucleated osteoclasts (herein below, referred to as TRAP(+) MNCs). The TRAP staining solution was contained naphtol AS-MX phosphate(pH5.0)as a substrate, Fast Red violet LB as a coloring agent and 50 mM tartaric acid and stored at a refrigerator until use. The number of TRAP(+) MNCs containing more than 6-7 or more nuclei were counted under a microscope. […] All experiments were performed using the osteoclastic media containing vitamin D3 and dexamethasone. […] Sodium alendronate hydrate was dissolved in purified water at a concentration of 0.2 mM, and then diluted 1,000 fold with the osteoclastic media to a final concentration of 0.2 μM. In this connection, a control group was maintained in 0.1% DMSO. Each experiment was performed by individual or combination treatment, as follows. […] The number of TRAP(+) MNCs with 6 or more nuclei were counted under a microscope. The results were expressed as a percentage of the relative number of mature osteoclast observed in each experimental group, when the number of mature osteoclast in the control group (solvent only) was regarded as 100%. […]

Row | SMILES | relative number of TRAP(+) MNCs (mature osteoclasts with 6 or more nuclei), control group = 100% (0.1 μM) | relative number of osteoclast, control group = 100% (0.3 μM) | relative number of osteoclast, control group = 100% (0.5 μM) | relative number of TRAP(+) MNCs (mature osteoclasts with 6 or more nuclei), control group = 100% (0.2 μM)
1 | CS(=O)(=O)O.CS(=O)(=O)O.Cc1nc(-c2ccc(OCCCCCOc3ccc(C(=N)NO)cc3)cc2)c(C(C)C)s1 [N-hydroxy-4-{5-[4-(5-isopropyl-2-methyl-1,3-thiazol-4-yl)phenoxy]pentoxy}benzamidine dimethanesulfonate] | significant reduction | 52.4% | 34.5% | 
2 | NCCCC(O)(P(=O)(O)O)P(=O)(O)O [sodium alendronate, reference compound] |  |  |  | 80.6% and significantly reduced
